In series [1] the test system is human small cell lung cancer NCI-H69 cell subcutaneous xenograft tumor. As to the kind of experiment: NCI-H69 subcutaneous xenograft, combination with etoposide, 22-day experiment (Table 7). Format: in vivo, BALB/c nude mice. The note with it: for T/C (%) / TGI (%): 22nd day; for Tumor volume (mm^3) (0th day) / Tumor volume (mm^3) (22th day): average ± SEM. The procedure:
Experiment example 3: in vivo pharmacodynamics of human small cell lung cancer NCI-H69 cell subcutaneous xenograft tumor BALB/c nude mouse model:
Experimental animals: Female BALB/c nude mice, 6-8 weeks old, weighing 15-22 grams; supplier: Shanghai Linchang Biotechnology Co., LTD. (Linchang, Shanghai)
Human small cell lung cancer NCI-H69 cells (ATCC, item number: HTB-119 and ECACC-95111733) were cultured in vitro in a culture condition of RPMI-1640 medium with 10% fetal bovine serum, 100 U/mL penicillin and 100 μg/mL streptomycin, incubated at 37° C. and 5% CO2. Conventional passage was carried out twice a week. When cell saturation was 80%-90% and the number reaches the requirement, cells were collected, counted and inoculated.
0.2 mL (10×10^6) NCI-H69 cells (with matrix glue, and volume ratio of 1:1) were subcutaneously inoculated into a right back of each mouse, and group administration was initiated when the average tumor volume reaches about 110-120 mm^3.
The tested compound was prepared as a 5 mg/mL clarified solution with 10% DMSO+50% polyethylene glycol 400+40% water as the solvent.
The experimental indicators refers to study whether tumor growth was inhibited, delayed, or cured. Tumor diameter was measured twice a week with a vernier caliper. The calculation formula of the tumor volume was V=0.5a×b^2, and a and b represent the long diameter and short diameter of the tumor, respectively.
The antitumor efficacy of the compound was evaluated by TGI (%) or relative tumor proliferation rate T/C (%). TGI (%) reflects the tumor growth inhibition rate. The calculation of TGI (%): TGI (%)=[1−(average tumor volume at the end of administration of a certain treatment group−average tumor volume at the beginning of administration of the treatment group)/(average tumor volume at the end of treatment in solvent control group−average tumor volume at the beginning of treatment in solvent control group)]×control group.
Relative tumor proliferation rate T/C (%): the calculation formula was as follows: T/C %=[…] TRTV/CRTV group (TRTV: treatment group RTV; CRTV: negative control group RTV). According to results of tumor measurement, Relative Tumor Volume (RTV) was calculated by the formula RTV=Vt/V0, where V0 was the average tumor volume measured in group administration (i.e., d0), and Vt was the average tumor volume measured in a certain single measurement. TRTV and CRTV collect data on the same day.
Statistic analysis includes an average value and a standard error (SEM) of tumor volume at each time point for each group. […] If there was no significant difference in F value, Dunnet (2-sided) method was applied to analysis. All data were analyzed using SPSS 17.0. P<0.05 was considered as having a significant difference.

Another series deals with T1, PI3K (p110β/p85α) (Homo sapiens, UniProt P42338).
T1 construct: Eurofins Pharma Discovery Service (contract assay)
As to the kind of experiment: PI3K (p110β/p85α) kinase inhibitory activity (HTRF). Format: biochemical. The procedure: (§1) This experiment was tested at Eurofins Pharma Discovery Service, Reaction Biology Corp. (RBC)
(§2) […] DNA-PK: Mg/ATP; GST-cMyc-p53; EDTA; Ser15 antibody; ATP: 10 μM; biotinylated phosphatidylinositol-3,4,5-triphosphate; GST label GRP1 PH domain; streptavidin and phycocyanin; europium-labelled monoclonal antibody against GST.
(§3) PI3K (p110β/p85α) was incubated in a determination buffer containing phosphatidylinositol 4,5-diphosphate and Mg/ATP (density as required). The reaction was initiated by adding a mixture of Mg/ATP. After incubating at room temperature for 30 min, a termination solution containing EDTA and biotinylated phosphatidylinositol-3,4, 5-triphosphate was added to terminate the reaction. Finally, a detection buffer (containing labeled anti-GST monoclonal antibody, PH domain of GRP1 with GST label and streptavidin and phycyanin and […]) was added. Then, the board was read in time-resolved fluorescence mode, and an HTRF signal was measured according to the formula HTRF=10000×(Em665 nm/Em620 nm).

For another series, the target named is T2, DNA-PK (h) (Homo sapiens, UniProt P78527).
T2 construct: Eurofins Pharma Discovery Service (contract assay)
Nature of the series: DNA-PK kinase inhibitory activity (HTRF, Eurofins). Format: biochemical. The note with it: ATP: 10 μM. Here is the method:
as §1, §2
as §3, with “DNA-PK (h)” for “PI3K (p110β/p85α)”, “50 nM GST-cMyc-p53” for “phosphatidylinositol 4,5-diphosphate”, “EDTA” for “EDTA and biotinylated phosphatidylinositol-3,4, 5-triphosphate”, “antibody” for “antibody, PH domain of GRP1 with GST label and streptavidin and phycyanin”, “a Homogeneous Time Resolved Fluorescence (HTRF)” for “an HTRF”
A general note: TR-FRET usually uses a lanthanide donor and a delayed reading to cut background.

[2] abbreviates: 40 mg/kg group (+ etoposide 10 mg/kg, IP).
[3] abbreviates: 40 mg/kg, PO, QD + etoposide 10 mg/kg, IP, 3-day administration, 4-day withdrawal.
The mark [4] stands for this setting: second Embodiment 19 group of Table 7, 40 mg/kg, PO, QD + etoposide 10 mg/kg, IP.

“And” between values parts separate entries of the source, which are not always exact repeats. Equal values may be shown once.

For orientation: TGI means how far tumour growth fell short of that in controls. A word on the IC50: it is the concentration that gives 50% inhibition. Higher therefore signals weaker potency.

T1 sequence (P42338 whole entry, species assumed): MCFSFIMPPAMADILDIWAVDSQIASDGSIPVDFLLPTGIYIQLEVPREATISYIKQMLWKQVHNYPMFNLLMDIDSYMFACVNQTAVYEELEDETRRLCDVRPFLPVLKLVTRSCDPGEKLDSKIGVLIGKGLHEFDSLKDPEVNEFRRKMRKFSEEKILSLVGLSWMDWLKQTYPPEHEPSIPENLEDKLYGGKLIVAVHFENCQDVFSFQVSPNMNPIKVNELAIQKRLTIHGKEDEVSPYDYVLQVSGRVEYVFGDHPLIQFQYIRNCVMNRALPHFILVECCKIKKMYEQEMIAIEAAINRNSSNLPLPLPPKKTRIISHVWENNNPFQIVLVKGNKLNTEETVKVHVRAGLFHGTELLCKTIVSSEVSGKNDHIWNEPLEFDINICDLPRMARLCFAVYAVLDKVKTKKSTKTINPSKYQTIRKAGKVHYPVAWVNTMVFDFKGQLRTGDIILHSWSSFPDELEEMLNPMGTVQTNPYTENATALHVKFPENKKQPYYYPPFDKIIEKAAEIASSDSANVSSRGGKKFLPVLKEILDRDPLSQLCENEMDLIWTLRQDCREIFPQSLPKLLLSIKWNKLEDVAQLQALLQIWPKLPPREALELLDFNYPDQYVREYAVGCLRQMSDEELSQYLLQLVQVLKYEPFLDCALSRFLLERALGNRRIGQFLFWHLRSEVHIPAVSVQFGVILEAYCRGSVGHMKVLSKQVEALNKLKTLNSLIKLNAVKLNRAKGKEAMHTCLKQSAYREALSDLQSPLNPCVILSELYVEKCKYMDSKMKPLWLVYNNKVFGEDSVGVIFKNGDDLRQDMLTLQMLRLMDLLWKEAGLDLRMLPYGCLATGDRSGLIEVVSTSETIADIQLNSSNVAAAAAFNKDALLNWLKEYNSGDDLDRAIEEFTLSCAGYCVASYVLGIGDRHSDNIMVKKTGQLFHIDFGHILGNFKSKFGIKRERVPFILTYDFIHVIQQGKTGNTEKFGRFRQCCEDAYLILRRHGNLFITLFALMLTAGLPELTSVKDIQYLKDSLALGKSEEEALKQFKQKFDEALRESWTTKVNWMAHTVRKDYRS
T1 sequence (P27986 whole entry partner, species assumed): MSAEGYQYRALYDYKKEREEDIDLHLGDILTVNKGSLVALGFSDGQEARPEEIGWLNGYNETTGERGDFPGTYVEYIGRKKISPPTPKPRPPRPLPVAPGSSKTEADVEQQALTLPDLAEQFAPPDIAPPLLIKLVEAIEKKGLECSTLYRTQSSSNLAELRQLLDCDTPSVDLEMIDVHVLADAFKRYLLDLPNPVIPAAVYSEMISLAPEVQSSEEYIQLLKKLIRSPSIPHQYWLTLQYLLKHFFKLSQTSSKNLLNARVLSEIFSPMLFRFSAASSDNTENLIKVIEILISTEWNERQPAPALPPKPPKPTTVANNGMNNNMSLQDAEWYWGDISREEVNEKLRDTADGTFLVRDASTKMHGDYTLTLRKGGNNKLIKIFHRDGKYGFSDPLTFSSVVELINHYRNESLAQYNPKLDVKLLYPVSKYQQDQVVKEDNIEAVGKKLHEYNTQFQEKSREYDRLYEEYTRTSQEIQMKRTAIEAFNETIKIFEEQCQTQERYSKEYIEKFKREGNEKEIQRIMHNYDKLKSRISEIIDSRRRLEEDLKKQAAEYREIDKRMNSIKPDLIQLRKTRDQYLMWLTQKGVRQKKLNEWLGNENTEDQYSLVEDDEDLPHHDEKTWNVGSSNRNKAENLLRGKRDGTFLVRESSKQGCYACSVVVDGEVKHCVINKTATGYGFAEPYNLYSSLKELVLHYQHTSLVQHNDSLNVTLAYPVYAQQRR

Regarding `COc1ccc(C(O)c2cc(-c3cnnc4c(F)c(N5CCOCC5)cc(F)c34)c(F)cc2Cl)nn1` (single isomer, unassigned) [Embodiment 19], the Weight changes was −5.88% in series [1] (setting [2]) and 0.13% in series [1] (80 mg/kg group (+ etoposide 10 mg/kg, IP)). For the same molecule, the figures for the “RTV (22th day)” value in series [1] (setting [3]) and in series [1] (setting [4]) were 3.73 and 2.51, respectively. In addition, the “T/C (%)” value in series [1] (setting [3]) was found to be 43.34%; in series [1] (setting [4]), 29.20%. Also, the “TGI (%)” value in series [1] (setting [3]) was 64% and 63.98%; in series [1] (setting [4]), 80.09%. Also, the “Tumor volume (mm^3) (0th day)” value came out at 119 ± 12 mm^3 in series [1] (setting [3]) and 119 ± 12 mm^3 in series [1] (second Embodiment 19 group of Table 7, 40 mg/kg, PO, QD + etoposide 10 mg/kg, IP, 3-day administration, 4-day withdrawal). The “Tumor volume (mm^3) (22th day)” value was found to be 444 ± 34 mm^3 in series [1] (setting [3]) and 299 ± 31 mm^3 in series [1] (setting [4]). Also, the TGI in series [1] (80 mg/kg, PO, QD + etoposide 10 mg/kg, IP, 3-day administration, 4-day withdrawal) is 80%. Also, the half-inhibitory concentration (IC50) at PI3K (p110β/p85α) worked out at 0.345 µM; at DNA-PK (h) it was 0.0021 µM.
For `COc1ccc([C@@H](O)c2cc(-c3nncc4cc(N5CCOCC5)ccc34)c(F)cc2Cl)nn1` [Embodiment M3814, reference compound], the Weight changes in series [1] (setting [2]) is listed as −16.00%. Further, in series [1] (setting [3]), the “RTV (22th day)” value was determined as 2.96; the “T/C (%)” value stood at 34.40%; the “TGI (%)” value is 74% and 74.21%; the “Tumor volume (mm^3) (0th day)” value was found to be 119 ± 13 mm^3. Besides, the “Tumor volume (mm^3) (22th day)” value in series [1] (setting [3]) is recorded as 352 ± 26 mm^3. At PI3K (p110β/p85α), this molecule showed a 50% inhibitory concentration (IC50) of 0.033 µM. This molecule also yielded an IC50 at DNA-PK (h) of 0.001 µM.

Values taken from patent US20220267310A1, “QUINAZOLINE AND CINNOLINE DERIVATIVES AS DNA-PK INHIBITOR” (MEDSHINE DISCOVERY INC., priority 2019, published 2022).
